Assay results published in the supplement of paper PMC5908809.

Key:
Assay in all cases: relative IC50 (inflection point of fitted viability curve, relative to fitted max inhibition); higher = less sensitive
Conditions in all cases: 72 h
[1] = tested on: DERL-7 (IL-2 2.5 ng/mL)
Experimental: (§1)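 Drug sensitivity and resistance testing: 5 concentrations over a 10,000-fold range, 72 h at 37 °C, viability by CellTiter-Glo normalised to DMSO and benzethonium chloride controls. IC50 is the inflection point of a logistic fit (min fixed at 0, max fitted), so it is relative to the fitted maximal inhibition. Kept only where fitted max inhibition is at least 50%.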

[2] = tested on: IMC-1 (IL-2 20 ng/mL)
Experimental: as §1

[3] = tested on: KAI3 (IL-2 2.5 ng/mL)
Experimental: as §1

[4] = tested on: KHYG-1 (IL-2 2.5 ng/mL)
Experimental: as §1

[5] = tested on: NK-92 (IL-2 2.5 ng/mL)
Experimental: as §1

[6] = tested on: NK-YS (IL-2 2.5 ng/mL)
Experimental: as §1

[7] = tested on: NKL (IL-2 2.5 ng/mL)
Experimental: as §1

[8] = tested on: SNK-6 (IL-2 2.5 ng/mL)
Experimental: as §1

[9] = tested on: YT (IL-2 2.5 ng/mL)
Experimental: as §1

[10] = tested on: normal primary NK cells, pool 1 (3 donors) (IL-2 2.5 ng/mL)
Experimental: as §1

[11] = tested on: normal primary NK cells, pool 1 (3 donors), resting (IL-2 0 ng/mL)
Experimental: as §1

[12] = tested on: normal primary NK cells, pool 2 (3 donors) (IL-2 2.5 ng/mL)
Experimental: as §1

[13] = tested on: normal primary NK cells, pool 3 (3 donors) (IL-2 2.5 ng/mL)
Experimental: as §1

Structure (SMILES) | relative IC50 [1] | relative IC50 [2] | relative IC50 [3] | relative IC50 [4] | relative IC50 [5] | relative IC50 [6] | relative IC50 [7] | relative IC50 [8] | relative IC50 [9] | relative IC50 [10] | relative IC50 [11] | relative IC50 [12] | relative IC50 [13]
CCOc1cc2ncc(C#N)c(Nc3ccc(F)c(Cl)c3)c2cc1NC(=O)/C=C/CN(C)C [Pelitinib] | 293 nM | 966 nM | 260 nM | 382 nM | 510 nM | 820 nM | 475 nM | 103 nM | 496 nM | 300 nM | 459 nM | 260 nM | 429 nM
COc1ccc(-c2nc(N3CCOCC3)c3sc(CN(C)c4ncc(C(=O)NO)cn4)cc3n2)cn1 [CUDC-907] | 1.6 nM | 13 nM | < 1 nM | 2.32 nM | 2.64 nM | 8.33 nM | < 1 nM | 7.89 nM | 14.7 nM | 6.42 nM | 3.45 nM | 5.81 nM | 8.82 nM
CCC/C=C/C=C/C(=O)O[C@H]1/C(=C/C(=O)OC)C[C@H]2C[C@H]([C@@H](C)O)OC(=O)C[C@H](O)C[C@@H]3C[C@H](OC(C)=O)C(C)(C)[C@](O)(C[C@@H]4C/C(=C/C(=O)OC)C[C@H](/C=C/C(C)(C)[C@]1(O)O2)O4)O3 [Bryostatin 1] | – | 0.28 nM | – | 0.13 nM | 0.23 nM | – | > 100 nM | 1 nM | – | > 100 nM | – | > 100 nM | > 100 nM
Cc1ncc(-c2ccnc(Nc3ccc(S(C)(=O)=O)cc3)n2)n1C(C)C [AZD-5438] | 1370 nM | 1220 nM | 1150 nM | 1080 nM | 3010 nM | 848 nM | 2740 nM | 3300 nM | 1570 nM | 2220 nM | 5260 nM | 1930 nM | 1800 nM
C1=N/C2=N/c3ccc(OCCN4CCCC4)c(c3)COC/C=C/COCc3cccc(c3)C(=C1)N2 [Pacritinib] | 560 nM | 3880 nM | 569 nM | 826 nM | 1220 nM | 982 nM | 777 nM | 1390 nM | 910 nM | 410 nM | 838 nM | 367 nM | 627 nM
O=C(O)c1ccc2c(c1)nc(Nc1cccc(Cl)c1)c1ccncc12 [Silmitasertib] | 2270 nM | – | 1780 nM | 2010 nM | 3900 nM | 2170 nM | 1850 nM | 3730 nM | 1650 nM | 1690 nM | 3780 nM | 2230 nM | 2040 nM
COc1ccc(-c2cc3c(C)nc(N)nc3n([C@H]3CC[C@H](OCCO)CC3)c2=O)cn1 | 41.3 nM | 4020 nM | 163 nM | 476 nM | 84.6 nM | 344 nM | 264 nM | 1060 nM | 116 nM | 939 nM | 514 nM | 951 nM | 1510 nM
CC[C@@]1(O)C(=O)OCc2c1cc1n(c2=O)Cc2cc3c(CN(C)C)c(O)ccc3nc2-1 [Topotecan] | 54.9 nM | 30.8 nM | 42 nM | 33.8 nM | 20.5 nM | 39.6 nM | 35 nM | 40.2 nM | 52.5 nM | 772 nM | 2880 nM | 1320 nM | 1030 nM
COc1cc(Nc2c(C#N)cnc3cc(OCCCN4CCN(C)CC4)c(OC)cc23)c(Cl)cc1Cl [Bosutinib] | 1320 nM | 3640 nM | 1350 nM | 1480 nM | 1620 nM | 2980 nM | 3110 nM | 3870 nM | 1950 nM | 1710 nM | 850 nM | 1520 nM | 3450 nM
